Read-outs that look alike come from different tables or passages of the source.
Assays:
Type in all cases: cell-based
[1] = biological target: EGFR(D770_N771insSVD) expressing Ba/F3 stable cell line (Homo sapiens, UniProt P00533, DUP768-770, cells depend on it); test: Cellular proliferation (Alamar Blue) assay, EGFR(D770_N771insSVD) Ba/F3; conditions: 72 hr, read-out: D770 IC50
Procedure, shortened: (§1)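 72 h proliferation test; compounds at final 10-0.0005 μM in 3-fold dilution series vs DMSO. Cells pre-plated 16-18 h (Ba/F3 15,000/well, A431 5000/well), 37 °C, 5% CO2. Alamar Blue 3 h end-point.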

[2] = biological target: EGFR (A767_dupASV) expressing Ba/F3 stable cell line (Homo sapiens, UniProt P00533, DUP767-769, cells depend on it); test: Cellular proliferation (Alamar Blue) assay, EGFR (A767_dupASV) Ba/F3; conditions: 72 hr, read-out: A767 IC50
Chain of EGFR (A767_dupASV) expressing Ba/F3 stable cell line (P00533 with tags, fused parts or gaps DUP767-769): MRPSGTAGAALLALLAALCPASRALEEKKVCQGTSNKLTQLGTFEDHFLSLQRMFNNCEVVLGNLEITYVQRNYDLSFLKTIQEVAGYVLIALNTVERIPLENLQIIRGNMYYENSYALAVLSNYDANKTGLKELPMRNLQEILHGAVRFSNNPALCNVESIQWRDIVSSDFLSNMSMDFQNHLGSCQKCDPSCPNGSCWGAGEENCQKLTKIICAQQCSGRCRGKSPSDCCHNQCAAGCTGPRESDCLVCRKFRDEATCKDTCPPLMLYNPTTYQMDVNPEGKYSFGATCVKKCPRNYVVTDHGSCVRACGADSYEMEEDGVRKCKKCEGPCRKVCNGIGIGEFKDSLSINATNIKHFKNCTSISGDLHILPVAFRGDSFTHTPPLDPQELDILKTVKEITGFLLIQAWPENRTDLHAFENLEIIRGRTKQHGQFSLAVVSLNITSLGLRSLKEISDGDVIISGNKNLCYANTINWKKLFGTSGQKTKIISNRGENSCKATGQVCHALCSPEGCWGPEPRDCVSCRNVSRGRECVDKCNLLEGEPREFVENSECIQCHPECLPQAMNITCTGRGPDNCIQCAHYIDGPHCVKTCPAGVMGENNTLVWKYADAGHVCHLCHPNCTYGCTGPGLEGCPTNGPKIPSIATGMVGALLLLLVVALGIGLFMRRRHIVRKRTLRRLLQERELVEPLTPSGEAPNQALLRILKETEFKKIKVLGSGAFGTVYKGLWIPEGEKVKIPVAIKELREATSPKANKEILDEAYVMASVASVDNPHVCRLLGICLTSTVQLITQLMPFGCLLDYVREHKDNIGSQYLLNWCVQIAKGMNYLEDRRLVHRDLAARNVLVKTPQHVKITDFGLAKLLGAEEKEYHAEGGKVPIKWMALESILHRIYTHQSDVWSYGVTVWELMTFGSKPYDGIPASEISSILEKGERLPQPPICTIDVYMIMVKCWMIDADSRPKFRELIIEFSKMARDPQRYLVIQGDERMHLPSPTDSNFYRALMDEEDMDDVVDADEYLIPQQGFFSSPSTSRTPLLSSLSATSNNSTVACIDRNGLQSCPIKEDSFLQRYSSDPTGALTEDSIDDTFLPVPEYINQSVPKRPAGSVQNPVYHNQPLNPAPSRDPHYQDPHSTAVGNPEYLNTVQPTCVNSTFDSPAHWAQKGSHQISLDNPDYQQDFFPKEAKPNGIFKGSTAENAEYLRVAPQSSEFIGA
Procedure, shortened: as §1

[3] = tested on: A431 cells; test: Cellular proliferation (Alamar Blue) assay, A431 cells; conditions: A431 cells, 72 hr, Alamar Blue, read-out: A431 IC50
Procedure, shortened: as §1

[4] = biological target: HER2 (A775_G776insYVMA) expressing Ba/F3 stable cell line (Homo sapiens, UniProt P04626, DUP772-775, cells depend on it); test: Cellular proliferation (Alamar Blue) assay, HER2 (A775_G776insYVMA) Ba/F3; conditions: HER2 (A775_G776insYVMA) Ba/F3 cells; 72 hr; Alamar Blue; read-out: YVMA IC50
Chain of HER2 (A775_G776insYVMA) expressing Ba/F3 stable cell line (P04626 with tags, fused parts or gaps DUP772-775): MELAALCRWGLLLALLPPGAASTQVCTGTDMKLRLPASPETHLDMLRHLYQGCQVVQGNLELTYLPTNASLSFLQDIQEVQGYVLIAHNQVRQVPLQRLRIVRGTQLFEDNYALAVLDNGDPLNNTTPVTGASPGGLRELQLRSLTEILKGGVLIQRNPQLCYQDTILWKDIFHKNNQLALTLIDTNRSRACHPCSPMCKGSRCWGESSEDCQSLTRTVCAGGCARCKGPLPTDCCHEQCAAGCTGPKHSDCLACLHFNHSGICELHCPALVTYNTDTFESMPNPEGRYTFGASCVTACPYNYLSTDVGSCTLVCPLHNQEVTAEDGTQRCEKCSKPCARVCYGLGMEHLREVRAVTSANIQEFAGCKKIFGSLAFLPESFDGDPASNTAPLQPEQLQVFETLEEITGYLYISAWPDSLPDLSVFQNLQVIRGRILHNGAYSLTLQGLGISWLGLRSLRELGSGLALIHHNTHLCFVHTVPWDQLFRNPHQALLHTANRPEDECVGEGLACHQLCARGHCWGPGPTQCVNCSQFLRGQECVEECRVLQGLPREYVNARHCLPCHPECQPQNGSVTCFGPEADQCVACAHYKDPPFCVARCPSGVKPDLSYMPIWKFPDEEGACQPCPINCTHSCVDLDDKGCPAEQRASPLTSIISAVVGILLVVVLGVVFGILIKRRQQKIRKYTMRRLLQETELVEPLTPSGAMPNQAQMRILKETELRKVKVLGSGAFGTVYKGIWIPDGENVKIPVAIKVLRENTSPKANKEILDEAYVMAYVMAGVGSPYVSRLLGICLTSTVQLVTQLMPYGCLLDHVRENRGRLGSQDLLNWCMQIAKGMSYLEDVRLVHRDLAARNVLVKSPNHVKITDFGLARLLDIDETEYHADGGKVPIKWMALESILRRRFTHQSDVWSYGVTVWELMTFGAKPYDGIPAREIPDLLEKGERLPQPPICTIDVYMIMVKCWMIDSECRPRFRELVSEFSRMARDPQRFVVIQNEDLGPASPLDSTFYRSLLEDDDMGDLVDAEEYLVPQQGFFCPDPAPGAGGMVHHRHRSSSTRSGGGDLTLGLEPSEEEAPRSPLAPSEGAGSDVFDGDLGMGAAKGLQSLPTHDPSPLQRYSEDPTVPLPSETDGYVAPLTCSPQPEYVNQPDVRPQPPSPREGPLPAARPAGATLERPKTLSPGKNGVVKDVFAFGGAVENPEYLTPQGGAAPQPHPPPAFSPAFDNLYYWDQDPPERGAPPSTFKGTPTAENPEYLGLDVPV
Procedure, shortened: as §1

Chain of EGFR(D770_N771insSVD) expressing Ba/F3 stable cell line (P00533 with tags, fused parts or gaps DUP768-770): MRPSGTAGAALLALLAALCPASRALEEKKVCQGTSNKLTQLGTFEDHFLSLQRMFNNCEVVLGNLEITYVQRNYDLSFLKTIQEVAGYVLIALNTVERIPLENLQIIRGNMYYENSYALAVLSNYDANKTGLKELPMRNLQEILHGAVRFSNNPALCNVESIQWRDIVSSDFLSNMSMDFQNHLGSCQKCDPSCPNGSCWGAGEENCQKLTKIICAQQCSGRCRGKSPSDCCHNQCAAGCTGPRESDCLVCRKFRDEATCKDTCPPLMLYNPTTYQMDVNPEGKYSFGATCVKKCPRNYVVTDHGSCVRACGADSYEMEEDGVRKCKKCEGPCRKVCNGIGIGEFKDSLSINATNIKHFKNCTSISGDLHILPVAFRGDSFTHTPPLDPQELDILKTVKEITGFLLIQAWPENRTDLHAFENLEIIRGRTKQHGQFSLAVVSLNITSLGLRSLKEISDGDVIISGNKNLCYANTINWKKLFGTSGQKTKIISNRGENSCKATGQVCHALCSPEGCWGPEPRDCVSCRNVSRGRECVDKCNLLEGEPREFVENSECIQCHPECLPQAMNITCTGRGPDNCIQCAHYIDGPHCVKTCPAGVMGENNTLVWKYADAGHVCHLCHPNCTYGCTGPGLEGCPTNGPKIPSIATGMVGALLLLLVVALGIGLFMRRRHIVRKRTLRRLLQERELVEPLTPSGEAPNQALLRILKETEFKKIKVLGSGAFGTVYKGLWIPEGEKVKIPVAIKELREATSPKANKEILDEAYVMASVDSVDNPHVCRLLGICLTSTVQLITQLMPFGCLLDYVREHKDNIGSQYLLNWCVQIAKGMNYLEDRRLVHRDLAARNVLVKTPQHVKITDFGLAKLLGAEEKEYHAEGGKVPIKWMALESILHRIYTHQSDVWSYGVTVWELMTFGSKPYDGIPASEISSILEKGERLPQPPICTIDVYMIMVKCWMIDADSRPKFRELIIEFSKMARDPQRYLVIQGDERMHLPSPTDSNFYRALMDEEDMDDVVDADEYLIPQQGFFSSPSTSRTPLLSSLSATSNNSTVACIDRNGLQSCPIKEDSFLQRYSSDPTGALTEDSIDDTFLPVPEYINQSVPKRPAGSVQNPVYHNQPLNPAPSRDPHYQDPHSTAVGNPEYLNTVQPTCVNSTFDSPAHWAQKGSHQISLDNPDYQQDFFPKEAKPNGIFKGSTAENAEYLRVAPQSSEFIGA

C=CC(=O)Nc1cccc(Nc2nc(Nc3cnn(C)c3)ncc2-c2cc(F)c(Br)c(Cl)c2)c1 [Compound 154, N-(3-((5-(4-bromo-3-chloro-5-fluorophenyl)-2-((1-methyl-1H-pyrazol-4-yl)amino)pyrimidin-4-yl)amino)phenyl)acrylamide]
GI50 [1]: 34 nM | GI50 [2]: 81 nM | IC50 ([3]; Homo sapiens, A-431, 72 h): 1760 nM | GI50 [4]: 154 nM

[2H]C([2H])([2H])n1cc(Nc2ncc(-c3cc(F)cc(F)c3)c(Nc3cc(NC(=O)/C=C/CN(C)C)ccc3F)n2)cn1 [Compound 167, (E)-N-(3-((5-(3,5-difluorophenyl)-2-((1-(methyl-d3)-1H-pyrazol-4-yl)amino)pyrimidin-4-yl)amino)-4-fluorophenyl)-4-(dimethylamino)but-2-enamide]
GI50 [1]: 84 nM | GI50 [2]: 234 nM | IC50 ([3]; Homo sapiens, A-431, 72 h): 512 nM | GI50 [4]: 142 nM

CN(C)C/C=C/C(=O)Nc1ccc(F)c(Nc2nc(Nc3cnn(C)c3)ncc2-c2cc(F)cc(F)c2)c1 [Compound 161, (E)-N-(3-((5-(3,5-difluorophenyl)-2-((1-methyl-1H-pyrazol-4-yl)amino)pyrimidin-4-yl)amino)-4-fluorophenyl)-4-(dimethylamino)but-2-enamide]
GI50 [1]: 217 nM | GI50 [2]: 140 nM | IC50 [3]: 759 nM | GI50 [4]: 62 nM

C=CC(=O)Nc1ccc(F)c(Nc2nc(Nc3cnn(C)c3)ncc2-c2cc(F)c(Cl)c(F)c2)c1 [Compound 158, N-(3-((5-(4-chloro-3,5-difluorophenyl)-2-((1-methyl-1H-pyrazol-4-yl)amino)pyrimidin-4-yl)amino)-4-fluorophenyl)acrylamide]
GI50 [1]: 11 nM | GI50 [2]: 15 nM | IC50 ([3]; Homo sapiens, A-431, 72 h): 10 nM | GI50 [4]: 40 nM

C=CC(=O)Nc1ccc(F)c(Nc2nc(Nc3cnn(C)c3)ncc2-c2cc(F)cc(Br)c2)c1 [Compound 109, N-(3-((5-(3-bromo-5-fluorophenyl)-2-((1-methyl-1H-pyrazol-4-yl)amino)pyrimidin-4-yl)amino)-4-fluorophenyl)acrylamide]
GI50 [1]: 53 nM | GI50 [2]: 97 nM | IC50 ([3]; Homo sapiens, A-431, 72 h): 534 nM | GI50 [4]: 192 nM

C=CC(=O)Nc1ccc(F)c(Nc2nc(Nc3cn(C)nc3Cl)ncc2-c2cc(F)cc(F)c2)c1 [Compound 104, N-(3-((2-((3-chloro-1-methyl-1H-pyrazol-4-yl)amino)-5-(3,5-difluorophenyl)pyrimidin-4-yl)amino)-4-fluorophenyl)acrylamide]
GI50 [1]: 34 nM | GI50 [2]: 44 nM | IC50 ([3]; Homo sapiens, A-431, 72 h): 17 nM | GI50 [4]: 64 nM

CN(C)C/C=C/C(=O)Nc1cccc(Nc2nc(Nc3cnn(C)c3)ncc2-c2cc(F)cc(F)c2)c1 [Compound 150, (E)-N-(3-((5-(3,5-difluorophenyl)-2-((1-methyl-1H-pyrazol-4-yl)amino)pyrimidin-4-yl)amino)phenyl)-4-(dimethylamino)but-2-enamide]
GI50 [1]: 126 nM | GI50 [2]: 110 nM | IC50 ([3]; Homo sapiens, A-431, 72 h): 214 nM | GI50 [4]: 237 nM

C=CC(=O)Nc1ccc(F)c(Nc2nc(Nc3cnn(C)c3)ncc2-c2cc(F)c(F)c(OC(F)F)c2)c1 [Compound 160, N-(3-((5-(3-(difluoromethoxy)-4,5-difluorophenyl)-2-((1-methyl-1H-pyrazol-4-yl)amino)pyrimidin-4-yl)amino)-4-fluorophenyl)acrylamide]
GI50 [1]: 68 nM | GI50 [2]: 63 nM | IC50 ([3]; Homo sapiens, A-431, 72 h): 261 nM | GI50 [4]: 163 nM

C=CC(=O)Nc1ccc(F)c(Nc2nc(Nc3cnn(C)c3)ncc2-c2cc(F)c(C(F)(F)F)c(OC)c2)c1 [Compound 133, N-(4-fluoro-3-((5-(3-fluoro-5-methoxy-4-(trifluoromethyl)phenyl)-2-((1-methyl-1H-pyrazol-4-yl)amino)pyrimidin-4-yl)amino)phenyl)acrylamide]
GI50 [1]: 251 nM | GI50 [2]: 322 nM | IC50 ([3]; Homo sapiens, A-431, 72 h): 394 nM | GI50 [4]: 1270 nM

C=CC(=O)Nc1cc(Br)cc(Nc2nc(Nc3cnn(C)c3)ncc2-c2cc(F)cc(C(F)F)c2)c1 [Compound 174, N-(3-bromo-5-((5-(3-(difluoromethyl)-5-fluorophenyl)-2-((1-methyl-1H-pyrazol-4-yl)amino)pyrimidin-4-yl)amino)phenyl)acrylamide]
GI50 [1]: 42 nM | GI50 [2]: 120 nM | IC50 ([3]; Homo sapiens, A-431, 72 h): 358 nM | GI50 [4]: 759 nM

C=CC(=O)Nc1cc(F)cc(Nc2nc(Nc3cnn(C)c3)ncc2-c2cc(F)c(Br)c(Cl)c2)c1 [Compound 163, N-(3-((5-(4-bromo-3-chloro-5-fluorophenyl)-2-((1-methyl-1H-pyrazol-4-yl)amino)pyrimidin-4-yl)amino)-5-fluorophenyl)acrylamide]
GI50 [1]: 26 nM | GI50 [2]: 22 nM | IC50 ([3]; Homo sapiens, A-431, 72 h): 128 nM | GI50 [4]: 104 nM

C=CC(=O)Nc1cccc(Nc2nc(Nc3cnn(C)c3)ncc2-c2cc(F)c(Br)c(F)c2)c1 [Compound 152, N-(3-((5-(4-bromo-3,5-difluorophenyl)-2-((1-methyl-1H-pyrazol-4-yl)amino)pyrimidin-4-yl)amino)phenyl)acrylamide]
GI50 [1]: 11 nM | GI50 [2]: 34 nM | IC50 ([3]; Homo sapiens, A-431, 72 h): 8 nM | GI50 [4]: 40 nM

C=CC(=O)Nc1ccc(F)c(Nc2nc(Nc3cnn(CCN(C)C)c3)ncc2-c2ccc(N3CCCCC3)c(F)c2)c1 [Compound 82, N-(3-((2-((1-(2-(dimethylamino)ethyl)-1H-pyrazol-4-yl)amino)-5-(3-fluoro-4-(piperidin-1-yl)phenyl)pyrimidin-4-yl)amino)-4-fluorophenyl)acrylamide]
GI50 [1]: 313 nM | GI50 [2]: 239 nM | IC50 ([3]; Homo sapiens, A-431, 72 h): 397 nM | GI50 [4]: 149 nM

C=CC(=O)Nc1ccc(F)c(Nc2nc(Nc3cnn(C)c3)ncc2-c2cc(F)cc(OC(F)F)c2)c1 [Compound 168, N-(3-((5-(3-(difluoromethoxy)-5-fluorophenyl)-2-((1-methyl-1H-pyrazol-4-yl)amino)pyrimidin-4-yl)amino)-4-fluorophenyl)acrylamide]
GI50 [1]: 262 nM | GI50 [2]: 132 nM | IC50 ([3]; Homo sapiens, A-431, 72 h): 67 nM | GI50 [4]: 574 nM

C=CC(=O)Nc1ccc(F)c(Nc2nc(Nc3cnn(C)c3)ncc2-c2c(F)cccc2OC)c1 [Compound 63, N-(4-fluoro-3-((5-(2-fluoro-6-methoxyphenyl)-2-((1-methyl-1H-pyrazol-4-yl)amino)pyrimidin-4-yl)amino)phenyl)acrylamide]
GI50 [1]: 3270 nM | GI50 [2]: 3090 nM | IC50 ([3]; Homo sapiens, A-431, 72 h): > 10000 nM | GI50 [4]: 884 nM

C=CC(=O)Nc1ccc(F)c(Nc2nc(Nc3cnn(CCOC)c3)ncc2-c2ccc(Br)c(F)c2)c1 [Compound 95, N-(3-((5-(4-bromo-3-fluorophenyl)-2-((1-(2-methoxyethyl)-1H-pyrazol-4-yl)amino)pyrimidin-4-yl)amino)-4-fluorophenyl)acrylamide]
GI50 [1]: 29 nM | GI50 [2]: 43 nM | IC50 ([3]; Homo sapiens, A-431, 72 h): 4770 nM | GI50 [4]: 197 nM

Cn1cc(Nc2ncc(-c3ccc(Br)c(F)c3)c(Nc3cc(NC(=O)/C=C/CN4CCC4)ccc3F)n2)cn1 [Compound 166, (E)-4-(azetidin-1-yl)-N-(3-((5-(4-bromo-3-fluorophenyl)-2-((1-methyl-1H-pyrazol-4-yl)amino)pyrimidin-4-yl)amino)-4-fluorophenyl)but-2-enamide]
GI50 [1]: 75 nM | GI50 [2]: 299 nM | IC50 ([3]; Homo sapiens, A-431, 72 h): 613 nM | GI50 [4]: 555 nM

CN(C)C/C=C/C(=O)Nc1ccc(F)c(Nc2nc(Nc3cnn(C)c3)ncc2-c2ccc(Br)c(F)c2)c1 [Compound 105, (E)-N-(3-((5-(4-bromo-3-fluorophenyl)-2-((1-methyl-1H-pyrazol-4-yl)amino)pyrimidin-4-yl)amino)-4-fluorophenyl)-4-(dimethylamino)but-2-enamide]
GI50 [1]: 129 nM | GI50 [2]: 663 nM | IC50 ([3]; Homo sapiens, A-431, 72 h): 85 nM | GI50 [4]: 125 nM

[2H]C([2H])([2H])Oc1cc(F)cc(-c2cnc(Nc3cnn(C)c3)nc2Nc2cc(NC(=O)C=C)ccc2F)c1 [Compound 165, N-(4-fluoro-3-((5-(3-fluoro-5-(methoxy-d3)phenyl)-2-((1-methyl-1H-pyrazol-4-yl)amino)pyrimidin-4-yl)amino)phenyl)acrylamide]
GI50 [1]: 70 nM | GI50 [2]: 110 nM | IC50 ([3]; Homo sapiens, A-431, 72 h): 387 nM | GI50 [4]: 208 nM

C=CC(=O)Nc1ccc(F)c(Nc2nc(Nc3cnn(C)c3)ncc2-c2cc(F)c(F)c(F)c2)c1 [Compound 149, N-(4-fluoro-3-((2-((1-methyl-1H-pyrazol-4-yl)amino)-5-(3,4,5-trifluorophenyl)pyrimidin-4-yl)amino)phenyl)acrylamide]
GI50 [1]: 11 nM | GI50 [2]: 34 nM | IC50 ([3]; Homo sapiens, A-431, 72 h): 11 nM | GI50 [4]: 92 nM

C=CC(=O)Nc1ccc(F)c(Nc2nc(Nc3cnn(C)c3)ncc2-c2cccc(Br)c2F)c1 [Compound 113, N-(3-((5-(3-bromo-2-fluorophenyl)-2-((1-methyl-1H-pyrazol-4-yl)amino)pyrimidin-4-yl)amino)-4-fluorophenyl)acrylamide]
GI50 [1]: 70 nM | GI50 [2]: 92 nM | IC50 ([3]; Homo sapiens, A-431, 72 h): 73 nM | GI50 [4]: 463 nM

C=CC(=O)Nc1ccc(F)c(Nc2nc(Nc3cnn(C)c3)ncc2-c2ccc(N3CCC3)c(F)c2)c1 [Compound 80, N-(3-((5-(4-(azetidin-1-yl)-3-fluorophenyl)-2-((1-methyl-1H-pyrazol-4-yl)amino)pyrimidin-4-yl)amino)-4-fluorophenyl)acrylamide]
GI50 [1]: 95 nM | GI50 [2]: 43 nM | IC50 ([3]; Homo sapiens, A-431, 72 h): 54 nM | GI50 [4]: 171 nM

Reference: patent US20230416232A1, “PYRIMIDINE COMPOUNDS, COMPOSITIONS, AND MEDICINAL APPLICATIONS THEREOF” (Blueprint Medicines Corporation, priority 2020, published 2023)
